“Also recorded” adds a separate entry of the source.
Tests used:
Format in all cases: in vivo, beagle dog
[1] = tested on: glaucomatous beagles; assay: Pupil diameter (PD), Jameson Caliper, in glaucomatous beagles
[2] = tested on: glaucomatous beagles; assay: Intraocular pressure (IOP), TonoVet, in glaucomatous beagles
[3] = tested on: glaucomatous beagles; assay: as above; conditions: including control of morning IOP spike
Description: (§1) One glaucomatous beagle dog (female, aged 3 years) from the University of Florida MacKay Colony of Glaucomatous Beagles was chosen for this study. The animal was rested a minimum of one week before starting the study. Prior to the commencement of the study, the animal was assigned one eye to receive 1.5 μl of 0.005% latanoprost and the contralateral eye to remain untreated as a control. The basic measurement protocol was followed at all times and performed by the same operator. PD was measured via Jameson Caliper (mm horizontally). IOP was measured using a TonoVet instrument with clean probe (iCare). IOP and PD were measured at time 0, 1, 2, 4, 7 and 18 hours daily for two days. Immediately after the time 0 measurement, the animal received 1.5 μl of 0.005% latanoprost in its assigned eye with a spray device. The contralateral eye was left untreated. The spray device was checked for accuracy before and after every use, and required a 10% delivered dose accuracy in pretreatment. Standard measurements continued throughout each day at time 1, 2, 4, 7 and 18 hours. Possible endpoints included, but were not limited to, excessive ocular irritation, ocular damage, and other illness or injury. No statistical crossover was utilized for this study.
as §1, with “study.” for “study. The animal was rested a minimum of one week before starting the study.”, “receive 3.0” for “receive 1.5”, “0 measurements,” for “0 measurement,”, “animal was administered 3.0” for “animal received 1.5”, “eye using” for “eye with”, “spray ejector” for “spray”
All animals were rested for a minimum of one week before starting the trials. IOP and pupil diameter (PD) were measured 5 times (at 0, 1, 2, 4, and 7 hours) daily for four days (study days 1-4) to establish initial baseline levels. The basic measurement protocol was followed at all times and performed by the same operator. PD was measured via Jameson Caliper (mm horizontally). IOP was measured with a TonoVet instrument with clean probe (iCare). After three rest days, one eye was randomly assigned to receive 9 μl of 0.005% latanoprost delivered via a spray ejector device, and the contralateral eye was administered traditional latanoprost from a traditional eyedropper container (26-30 μl).
On study days 5-9, IOP and PD measurements were taken at approximately 0900 h (time 0). Immediately after time 0 measurements, each animal received a once-daily dose of 9 μl of generic 0.005% latanoprost in its assigned eye via the spray ejector device. The contralateral eye received a clinical dose (one drop) of the same commercially available topical drug from a traditional eyedropper (positive control). The spray ejector device was checked for accuracy before and after every use and required a 10% delivered dose accuracy in pretreatment. Standard measurements continued throughout each day at 0, 1, 2, 4, and 7 hours. Possible endpoints included, but were not limited to, excessive ocular irritation, ocular damage, and other illness or injury. No statistical crossover was utilized for this study. […]

[4] = tested on: glaucomatous beagles; assay: Ocular irritation observations in glaucomatous beagles
Description: Active drug delivery begins on study day eight. For five days, IOP and PD measurements are taken at 0900. Immediately after 0900 measurements (time 0), each animal receives 6 μl of generic latanoprost in its assigned eye with the ejector device, followed by a second dosing 3 minutes later of an additional 6 μl (to avoid overloading the conjunctival sac). The contralateral eye receives a clinical dose (one drop) of the same commercially-available topical drug from FDA approved container (positive control). The ejector device is checked for accuracy before and after every use (Table 1). Standard measurements continue throughout each day (at 0:30, 0:45, 1, 2, 7 hrs). Possible endpoints include, but are not limited to, excessive ocular irritation, ocular damage, or other illness and injury. […]
On study days 5-9, IOP and PD measurements were taken at approximately 0900 h (time 0). Immediately after these measurements, each animal received 6 μl of 0.03% bimatoprost in its assigned eye via the spray ejector device. The contralateral eye received a clinical dose (one drop) of the same commercially available topical drug from a traditional eyedropper (positive control). The spray ejector device was checked for accuracy before and after every use and required a 10% delivered dose accuracy in pretreatment. Standard measurements continued throughout each day at 0, 1, 2, 4, and 7 hours. Possible endpoints included, but were not limited to, excessive ocular irritation, ocular damage, and other illness or injury. No statistical crossover was utilized for this study.
Ophthalmic examinations (slit lamp with fluorescein and indirect ophthalmoscopy) were performed on the eyes of each animal prior to Study Day 1. Ocular findings were scored according to the McDonald-Shadduck Score System. Ocular findings were recorded using a standardized data collection sheet. Macroscopic observations were recorded in accordance with the Draize Scale for Scoring Ocular Lesions. Animals were assigned treatments based on basic randomization prior to study day one.
Following a 7 day rest period, the eye choice was reversed. Measurements of IOP, heart rate and pupil diameter (PD) were made at 0:15, 0:30, 0:45, 1, 2, 4, 7, and 18 hours in the primary and crossover study. A veterinary ophthalmologist evaluated each test subject before and after the study for evidence of ocular side effects.
Ophthalmic examinations (slit lamp with fluorescein and indirect ophthalmoscopy) were performed on the eyes of each animal prior to study day 1. Ocular findings were scored according to the McDonald-Shadduck score system and macroscopic observations were recorded in accordance with the Draize scale for scoring ocular lesions. Ocular findings were recorded using a standardized data collection sheet.

[5] = 0.0005%, 0.002%, positively charged, 3 mcl
[6] = 9 μl of 0.004% via spray ejector device, study day 1

CC(C)OC(=O)CCC/C=C\C[C@@H]1[C@@H](/C=C/[C@@H](O)COc2cccc(C(F)(F)F)c2)[C@H](O)C[C@@H]1O [travoprost]
decrease of pupillary diameter compared to uncharged droplets [1, 5]: less decrease of pupillary diameter | maximum miosis ([1]; 9 μl of 0.004% via spray ejector device, at time 12 hours): 1.17 mm | time of significant PD changes [1, 6]: 12 h | IOP lowering compared to uncharged droplets [2, 5]: greater IOP lowering | IOP values vs baseline ([2]; 0.004%, both treatments (18 μl spray ejector device, eyedropper)): much lower than baseline for a full 24 hours | IOP lowering compared to uncharged droplets ([2]; 0.004%, positively and negatively charged): greater IOP lowering | IOP lowering ([2]; 3 microliters, 0.002% and 0.0005%, spray ejector device with controllable droplet charge): greater IOP lowering | spray ejector device vs micropipette treatment ([2]; 9 μl of 0.004% each, throughout the study (p=0.7546)): no statistically significant differences | highest average daily peak IOP ([2]; 9 μl of 0.004% via spray ejector device, after 5 days of treatment): 18.83 mmHg | time of significant changes in IOP from baseline [2, 6]: 12 h | post-treatment IOP ([2]; 18 μl morning or evening dose via spray ejector device / traditional therapy): below 20 mmHg | effectiveness at lowering/controlling IOP vs traditional therapy ([2]; 18 μl of 0.004% once daily, morning or evening, via spray ejector device vs one drop (average 26 μl)): as effective at lowering IOP and constricting the pupil as the traditional therapy; also recorded: as effective at controlling IOP as traditional therapy | difference in duration of IOP lowering, spray ejector device vs eyedropper ([2]; 18 μl of 0.004% vs one drop): not significant | duration of IOP lowering ([2]; controllable droplet charge spray administration, 1xqd@hs dosing): full 24 hour IOP lowering | lowering of IOP over a 24 hour period compared with other prostaglandin agonists studied [3]: most effective of the prostaglandin agonists studied | excessive eye irritation or other eye issues ([4]; 9 μl of 0.004%, spray ejector device and micropipette): no reports of excessive eye irritation or other eye issues | irritation vs eyedropper-treated eyes ([4]; 18 μl of 0.004% via spray ejector device): less than that observed in the eyedropper-treated eyes
